Source: ChEMBL document CHEMBL2074102, “Expression and functional characterization of rat organic anion transporter 3 (rOat3) in the choroid plexus” (Mol Pharmacol, 2002)

T1: Organic anion transporter 3 (Rattus norvegicus, UniProt Q9R1U7)
T1 sequence (Q9R1U7 whole entry): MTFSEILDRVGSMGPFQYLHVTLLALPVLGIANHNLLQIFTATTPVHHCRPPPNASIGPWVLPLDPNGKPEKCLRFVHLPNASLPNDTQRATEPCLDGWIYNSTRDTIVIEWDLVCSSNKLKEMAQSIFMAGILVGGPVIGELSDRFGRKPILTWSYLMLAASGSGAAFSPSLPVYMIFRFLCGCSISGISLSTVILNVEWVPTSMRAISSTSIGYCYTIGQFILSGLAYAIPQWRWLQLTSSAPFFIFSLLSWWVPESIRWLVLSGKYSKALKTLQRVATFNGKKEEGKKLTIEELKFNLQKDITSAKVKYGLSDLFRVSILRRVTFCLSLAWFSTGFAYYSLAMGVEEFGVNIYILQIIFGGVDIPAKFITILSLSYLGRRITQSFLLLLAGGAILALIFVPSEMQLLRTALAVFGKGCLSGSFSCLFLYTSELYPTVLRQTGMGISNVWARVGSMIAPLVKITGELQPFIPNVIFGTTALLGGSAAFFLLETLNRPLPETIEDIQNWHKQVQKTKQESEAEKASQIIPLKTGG

T2: Solute carrier family 22 member 6 (Rattus norvegicus, UniProt O35956)
T2 sequence (O35956 whole entry): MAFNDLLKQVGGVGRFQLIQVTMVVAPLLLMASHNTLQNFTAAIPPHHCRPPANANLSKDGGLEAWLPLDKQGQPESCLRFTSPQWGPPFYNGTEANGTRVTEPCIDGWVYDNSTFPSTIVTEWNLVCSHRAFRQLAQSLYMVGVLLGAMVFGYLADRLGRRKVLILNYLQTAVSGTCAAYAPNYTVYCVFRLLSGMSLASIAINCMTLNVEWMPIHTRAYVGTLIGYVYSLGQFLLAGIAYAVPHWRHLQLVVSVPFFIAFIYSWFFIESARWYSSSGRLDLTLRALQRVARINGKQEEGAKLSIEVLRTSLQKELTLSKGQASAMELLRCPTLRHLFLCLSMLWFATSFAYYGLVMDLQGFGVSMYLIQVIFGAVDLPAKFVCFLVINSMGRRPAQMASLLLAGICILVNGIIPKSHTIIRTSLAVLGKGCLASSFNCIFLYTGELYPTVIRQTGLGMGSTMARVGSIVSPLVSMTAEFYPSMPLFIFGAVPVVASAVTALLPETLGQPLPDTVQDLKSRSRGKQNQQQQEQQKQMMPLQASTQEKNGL


What was measured:
Format in all cases: functional, cell-based
[1] = biological target: T1, Organic anion transporter 3; assay: TP_TRANSPORTER: inhibition of PCG uptake in OAT3-expressing LLC-PK1 cells
[2] = biological target: T2, Solute carrier family 22 member 6; assay: TP_TRANSPORTER: inhibition of PAH uptake in Oat1-expressing LLC-PK1 cells
[3] = biological target: T1, Organic anion transporter 3; assay: TP_TRANSPORTER: inhibition of PCG uptake in Oat3-expressing LLC-PK1 cells
[4] = substrate: CC1(C)S[C@@H]2[C@H](NC(=O)Cc3ccccc3)C(=O)N2[C@H]1C(=O)O; assay: TP_TRANSPORTER: uptake in Oat3-expressing LLC-PK1 cells

Ki [3]	Molecule	Ki [1]	Ki [2]	other results
	C[C@]12CC[C@@H]3c4ccc(OS(=O)(=O)O)cc4CC[C@H]3[C@@H]1CCC2=O [ESTRONE SULFURIC ACID]	9.1 µM		
4.43 µM	CCCN(CCC)S(=O)(=O)c1ccc(C(=O)O)cc1 [PROBENECID]			
	CN/C(=N/CCSCc1nc[nH]c1C)NC#N [CIMETIDINE]	46.8 µM	> 1000 µM	
398 µM	Nc1ccc(C(=O)NCC(=O)O)cc1 [AMINOHIPPURIC ACID]			
	Organic anion transporter 3 (Rattus norvegicus) (protein) MTFSEILDRVGSMGPFQYLHVTLLALPVLGIANHNLLQIFTATTPVHHCRPPPNASIGPWVLPLDPNGKPEKCLRFVHLPNASLPNDTQRATEPCLDGWIYNSTRDTIVIEWDLVCSSNKLKEMAQSIFMAGILVGGPVIGELSDRFGRKPILTWSYLMLAASGSGAAFSPSLPVYMIFRFLCGCSISGISLSTVILNVEWVPTSMRAISSTSIGYCYTIGQFILSGLAYAIPQWRWLQLTSSAPFFIFSLLSWWVPESIRWLVLSGKYSKALKTLQRVATFNGKKEEGKKLTIEELKFNLQKDITSAKVKYGLSDLFRVSILRRVTFCLSLAWFSTGFAYYSLAMGVEEFGVNIYILQIIFGGVDIPAKFITILSLSYLGRRITQSFLLLLAGGAILALIFVPSEMQLLRTALAVFGKGCLSGSFSCLFLYTSELYPTVLRQTGMGISNVWARVGSMIAPLVKITGELQPFIPNVIFGTTALLGGSAAFFLLETLNRPLPETIEDIQNWHKQVQKTKQESEAEKASQIIPLKTGG			Km [4]: 82.6 µM

Molecule	Ki [3]	Ki [1]	Ki [2]	other results
C[C@]12CC[C@@H]3c4ccc(O)cc4CC[C@H]3[C@@H]1CC[C@@H]2O[C@@H]1O[C@H](C(=O)O)[C@@H](O)[C@H](O)[C@H]1O [ESTRADIOL 17B GLUCURONIDE]	35.6 µM		> 300 µM	
